{
  "source": "paper PMC8763243",
  "about": "“Synthesis of Novel Suramin Analogs With Anti-Proliferative Activity via FGF1 and FGFRD2 Blockade” (Frontiers in Chemistry, 2022)",
  "key": {"[1]": {"experiment": "Exposure stability study by 1H NMR in DMSO-d6 and D2O", "type": "physicochemical", "settings": "0.017 mol/L in DMSO-d6 and D2O, 11 days", "experimental": "The stability of the compounds was verified in both aqueous and DMSO solutions. In aqueous medium, the stability of the suramin derivatives 15 and 18 were considered to verify the stability. A control experiment consisting of a DMSO-d 6 (0.017 mol/L) solution of 15 and a D2O solution of 15 (0.017 mol/L) was maintained on the laboratory bench. All experiments were performed in NMR tubes containing 0.017 mol/L solutions of compounds 15 and 18 in DMSO-d 6 and D2O, respectively. NMR spectra were recorded over 11 days (initially daily for 1 week).\n10 mg of the newly synthesized compound was diluted in 500 µL DMSO-d 6 under investigation in a 5-mm NMR tube. The procedure was maintained as it is for 11 days in the solution. The ^1H NMR spectrum was recorded daily for 4 days up to 11 days.\n10 mg of the novel compound was diluted in 500 µL D2O under investigation in a 5-mm NMR tube. The procedure was maintained as it is for 11 days in the solution. The ^1H NMR spectrum was recorded daily for 4 days up to 11 days."}, "FGF1": {"target": "T1, FGF1 (Homo sapiens, UniProt P05230)", "T1 construct": "made in house", "T1 sequence (P05230 whole entry)": "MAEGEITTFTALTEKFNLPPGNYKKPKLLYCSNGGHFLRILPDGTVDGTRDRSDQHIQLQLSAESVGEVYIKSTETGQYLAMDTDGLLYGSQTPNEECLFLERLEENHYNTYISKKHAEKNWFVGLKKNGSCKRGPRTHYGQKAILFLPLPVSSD", "experiment": "Fluorescence spectroscopy binding constant of FGF1 and suramin derivatives", "settings": "fluorescence quenching, 5 µM FGF1, non-linear regression with Stern–Volmer equation, pH 6.5", "experimental": "The binding constant Kd was calculated for FGF1 and the five derivatives in a buffer containing 10% D2O, 50 mM AMS, 20 mM phosphate buffer, and 50 mM NaCl at pH 6.5 using an F-2500 Hitachi fluorescence spectrophotometer.\n[…] has tremendous significance for biochemical application because it provides valuable knowledge about the probability of quencher activity. The anti-mitogenic activity of the five compounds was achieved by the same mechanism in which suramin inhibits the mitogenic activity of FGF1. A non-linear regression curve was plotted for the relative intensities of activity versus drug concentration using the Stern–Volmer equation (Eq. 1). log(F0−F)/F=logK+nlog[Q], (1)\nwhere F0 represents the fluorescence intensity in the absence of the compounds, and F represents the fluorescence intensity in the presence of the [Q] concentration of the compounds.\nIncreasing concentrations of these five suramin derivatives were added to a solution containing 5 µM FGF1. A reduction in the fluorescence intensity was reported for all five suramin derivatives. The Stern–Volmer equation was used to calculate the binding constant between FGF1 and compounds 14, 15, 17, 18, and 21 for relative intensities versus the total concentration in a non-linear regression curve."}, "[2]": {"experiment": "WST-1 assay, cytotoxicity in tumorigenic cells", "type": "cell-based, human", "settings": "human; MCF-7 cells, 48 h, SigmaPlot; read-out: estimated IC50 (cytotoxicity)", "experimental": "(§1) The water-soluble tetrazolium salt (WST-1) assay was performed to assess the effects of the compounds on cell proliferation and cytotoxicity. DMEM/F12 containing 10% FBS was used for the cell culture, and incubation was performed in 5% CO2 till the logarithmic growth phase was achieved. On the day before the experiment, the cells were trypsinized and seeded in a 96-well plate at a density of 5000 cells/well. For the FGF1-stimulated cell proliferation assay, the cells were then incubated for 24 h in a serum-free medium containing 0.1% bovine serum albumin (BSA). Serum-starved cells with or without a specified concentration of suramin, 14, 15, 17, 18, 21, and FGFRD2 were stimulated with 100 nM of FGF1 again for 48 h. For the purpose of the cytotoxicity assay, the cells were treated with an increased concentration of suramin and compounds 14, 17, 15, 18, and 21 (Figure 6) for 48 h. Also, 1/10 of the volume of WST-1 cell reagent was inserted in every well and maintained at 37°C for another 4 h before harvesting. There was gentle agitation of the medium in the cell culture plate for 10 min using a shaker. A Synergy 2 microplate reader (BioTek Instruments, Inc., VT, United States) was used to measure the absorbance at 450 nm. The relative absorbance was compared with the control treatment to determine the relative cell number.\n(§2) […] […] The reason for the higher cytotoxicity was the presence of methyl groups on the suramin structure ([Martello et al., 2001]).\n(§3) Suramin-induced neuropathy may depend on the effects on calcium (Ca^2+) homeostasis as a potential pathological mechanism, and the full or partial positive charge of the element when directly attached to the ring at each of the sulphonic groups (HSO3). These interactions exert a moderate to strong electron-withdrawing inductive effect, which may be responsible for the observed suramin cytotoxicity ([Prasetyaningrum et al., 2018]; [Von Der Ahe et al., 2018]). The cytotoxicity of the synthesized analogs was lower as there were methyl groups and no sulfonic acid groups attached to the suramin backbone. The IC50 values of the synthesized compounds in MCF-7 breast cancer cells were analyzed using SigmaPlot software."}, "MCF-7 cells": {"test_system": "MCF-7 cells", "experiment": "WST-1 assay, cytotoxicity in tumorigenic cells", "type": "cell-based, human", "settings": "for Mean (Blank 450) / Fold (mean) / Blank 450 / Fold: S8; for Fold (mean): relative to control; for Blank 450: single replicate absorbance; for Fold: single replicate relative to control", "experimental": "as §1, §2, §3"}, "[3]": {"experiment": "WST-1 assay, cytotoxicity in normal breast epithelial cell line (non-tumorigenic)", "type": "cell-based", "settings": "human; non-tumorigenic MCF-10A cells; read-out: estimated IC50 (cytotoxicity)", "experimental": "as §1\nIn order to gain some insight about the selectivity of the compounds between tumorigenic and non-tumorigenic cells, the cytotoxicity was also being evaluated against normal breast cell lines by examining the cytotoxicity of suramin and its derivatives, compounds 15, 18, and 21, in a normal breast epithelial cell line (non-tumorigenic), MCF-10A. […] Compared to their cytotoxicity in tumorigenic MCF-7 cells (Figure 6), the estimated IC50 values in MCF-10A were higher than those in MCF-7 cells. […] However, the estimated IC50 value of suramin and its derivatives in both non-tumorigenic MCF-10A and tumorigenic MCF-7 cells were over 100 μM. The effective concentrations of suramin and its derivatives to attenuate FGF1-stimulated cell proliferation in MCF-7 cells were around 1 μM (Figure 5), which is non-toxic concentration to both MCF-7 cells and MCF-10A cells. […] Therefore, in addition to the specificity of each drug, the selectivity of suramin and its derivatives to disrupt the FGF1/FGFR-mediated breast cancer growth might rely on the overexpression or amplification of FGFR2 in breast cancer cells, but not in normal cells, and the secreted FGF1 ligand by autocrine or paracrine effects from cancer cells or their surrounding stroma cells or adipocytes (tumor microenvironment). The statistical data for the cytotoxicity are shown in Supplementary Figure S8."}},
  "note": "Values joined by “and” are separate entries in the source; they are usually repeats but may differ in a detail not shown here. Equal values may be shown once.",
  "data": [
    {"smiles": "O=C(Nc1ccc(C(=O)Nc2ccc(C(=O)Nc3cc(S(=O)(=O)O)cc4cc(S(=O)(=O)O)cc(S(=O)(=O)O)c34)cc2)cc1)Nc1ccc(C(=O)Nc2ccc(C(=O)Nc3cc(S(=O)(=O)O)cc4cc(S(=O)(=O)O)cc(S(=O)(=O)O)c34)cc2)cc1", "note": "[Compound 18, Sodium 8,8'-((4,4'-((4,4'-(carbonylbis (azanediyl))bis (benzoyl))bis (azanediyl))bis (benzoyl))bis(azanediyl)) bis (naphthalene-1,3,6-trisulfonate)]", "values": [
      {"measurement": "stability in solution (1H NMR)", "setting": "[1]", "value": "remarkably stable"},
      {"measurement": "Kd", "setting": "FGF1", "value": 15.5, "unit": "µM"},
      {"measurement": "IC50 at 48 h", "setting": "[2]", "value": "> 100", "unit": "µM"},
      {"measurement": "Mean (Blank 450)", "setting": "MCF-7 cells; 1 uM", "value": 1.224},
      {"measurement": "Fold (mean)", "setting": "MCF-7 cells; 1 uM", "value": 1.05},
      {"measurement": "Blank 450", "setting": "MCF-7 cells; 1 uM", "value": "1.234 and 1.224 and 1.182 and 1.256"},
      {"measurement": "Fold", "setting": "MCF-7 cells; 1 uM", "value": "1.059 and 1.050 and 1.014 and 1.078"},
      {"measurement": "Mean (Blank 450)", "setting": "MCF-7 cells; 5 uM", "value": 1.176},
      {"measurement": "Fold (mean)", "setting": "MCF-7 cells; 5 uM", "value": 1.01},
      {"measurement": "Blank 450", "setting": "MCF-7 cells; 5 uM", "value": "1.176 and 1.214 and 1.141 and 1.173"},
      {"measurement": "Fold", "setting": "MCF-7 cells; 5 uM", "value": "1.009 and 1.042 and 0.979 and 1.007"},
      {"measurement": "Mean (Blank 450)", "setting": "MCF-7 cells; 10 uM", "value": 1.160},
      {"measurement": "Fold (mean)", "setting": "MCF-7 cells; 10 uM", "value": 1.00},
      {"measurement": "Blank 450", "setting": "MCF-7 cells; 10 uM", "value": "1.108 and 1.161 and 1.207 and 1.165"},
      {"measurement": "Fold", "setting": "MCF-7 cells; 10 uM", "value": "0.951 and 0.996 and 1.036 and 1.000"},
      {"measurement": "Mean (Blank 450)", "setting": "MCF-7 cells; 50 uM", "value": 1.139},
      {"measurement": "Fold (mean)", "setting": "MCF-7 cells; 50 uM", "value": 0.98},
      {"measurement": "Blank 450", "setting": "MCF-7 cells; 50 uM", "value": "1.184 and 1.149 and 1.053 and 1.169"},
      {"measurement": "Fold", "setting": "MCF-7 cells; 50 uM", "value": "1.016 and 0.986 and 0.904 and 1.003"},
      {"measurement": "Mean (Blank 450)", "setting": "MCF-7 cells; 100 uM", "value": 1.057},
      {"measurement": "Fold (mean)", "setting": "MCF-7 cells; 100 uM", "value": 0.91},
      {"measurement": "Blank 450", "setting": "MCF-7 cells; 100 uM", "value": "1.098 and 1.004 and 1.043 and 1.081"},
      {"measurement": "Fold", "setting": "MCF-7 cells; 100 uM", "value": "0.942 and 0.862 and 0.895 and 0.928"},
      {"measurement": "cytotoxicity compared with suramin", "setting": "MCF-7 cells; MCF-7 cells, 1-100 µM, 48 h, especially at concentrations higher than 10 µM", "value": "less toxic"},
      {"measurement": "IC50 at 48 h", "setting": "[3]", "value": "653.4 ± 2.31", "unit": "µM"}
    ]}
  ]
}
